Patent US20130101580A1, “COMPOSITIONS AND METHODS FOR PROLONGING LIFESPAN” (priority 2011, published 2013)
Marks after values point to notes of the source that are not given here.

Legend:
[1] = tested on: Drosophila melanogaster (Oregon); assay: Life span of wild type Oregon-R flies with aMT or 5MT added to the nutrition medium; type: in vivo; details: for Life span (days), Maximum / Life span (days), Mean / Life span (days), Median: aMT (18.3 mM) and 5MT (18.3 mM) in medium; for Increase of maximum life span / Increase of mean survival time: vs control
Experimental: Wild type Oregon-R flies were maintained at 23° C. on a standard Drosophila medium consisting of sugar, yeast, agar and semolina. Two concentrations of aMT (alpha-dl-methyl tryptophan) (0.46 mM or 18.3 mM) or 5MT (5-methyl-dl-tryptophan) (2.4 mM and 18.mM) (Sigma Aldrich Chemical Co, USA) were added to nutrition medium of experimental groups. To examine lifespan, 1-day old adult flies were collected and then regularly transferred to fresh medium every 3-4 days. The number of dead flies was recorded at the time of transfer.
The data were analyzed using two ways ANOVA and Log rank test.

[2] = tested on: Drosophila melanogaster (Oregon); assay: as above; type: in vivo

Question: With `Cc1ccc2[nH]cc(CC(N)C(=O)O)c2c1` (racemic) [5MT, 5-methyl-dl-tryptophan] as the compound, how does the “Life span (days), Maximum” value ([1]; FEMALE flies) read?
Answer: 65* days

Question: What about the “Life span (days), Mean” value ([1]; FEMALE flies) of the same compound?
Answer: 48.5* days

Question: What about the “Life span (days), Median” value ([1]; FEMALE flies) of the same compound?
Answer: 50 days

Question: What about the “Life span (days), Maximum” value ([1]; MALE flies) of the same compound?
Answer: 40 days

Question: What about the “Life span (days), Mean” value ([1]; MALE flies) of the same compound?
Answer: 26.7 days

Question: What about the “Life span (days), Median” value ([1]; MALE flies) of the same compound?
Answer: 30 days

Question: And the “Increase of maximum life span” value ([1]; female flies, 5MT 34.5 mM, p<0.0001, two way ANOVA)?
Answer: 23%

Question: And the “Female flies surviving longer than 53 days (maximum life span of female control group)” value ([1]; female flies, high concentrations of 5MT (34.5 mM), 11 out of 58)?
Answer: 19%

Question: And the “Effect on life span of Drosophila” value ([2]; 5MT 2.3 mM in medium)?
Answer: did not affect

Question: What about the “Increase of mean survival time” value ([2]; female flies, 5MT 34.5 mM, vs control, p<0.0001, two way ANOVA) of the same compound?
Answer: 21%

Question: What about the “Longest survival of treated female flies” value ([2]; female flies, high concentrations of 5MT (34.5 mM)) of the same compound?
Answer: up to 65 days

Question: For `C[C@](N)(Cc1c[nH]c2ccccc12)C(=O)O` (racemic) [aMT, alpha-dl-methyl tryptophan], which “Life span (days), Mean” value ([1]; FEMALE flies) is on record?
Answer: 51.7* days

Question: And the “Life span (days), Median” value ([1]; FEMALE flies)?
Answer: 50 days

Question: What about the “Life span (days), Mean” value ([1]; MALE flies) of the same compound?
Answer: 40.2* days

Question: What about the “Life span (days), Median” value ([1]; MALE flies) of the same compound?
Answer: 43* days

Question: What about the “Effect on life span of Drosophila” value ([1]; aMT 0.46 mM in medium) of the same compound?
Answer: did not affect

Question: And the “Increase of maximum life span” value ([1]; female flies, aMT 18.3 mM, p<0.0001)?
Answer: 23%

Question: What about the “Female flies surviving longer than 53 days (maximum life span of female control group)” value ([1]; female flies, high concentration of aMT (18.3 mM), 13 out of 51) of the same compound?
Answer: 25%

Question: And the “Increase of mean survival time” value ([1]; females, aMT 18.3 mM, p<0.0001, two way ANOVA)?
Answer: 27%

Question: And the “Increase of maximum life span” value ([1]; male flies, aMT 18.3 mM, p<0.0001)?
Answer: 21%

Question: And the “Effect on life span of male flies” value ([1]; male flies, high concentration (18.3 mM))?
Answer: did not affect

Question: And the “Male flies surviving longer than 40 days (maximum life span of 72 out of 73 control flies)” value ([1]; male flies, high concentration of aMT (18.3 mM), 29 out of 40)?
Answer: 60%

Question: And the “Increase of mean survival time” value ([1]; males, aMT 18.3 mM, p<0.0001, two way ANOVA)?
Answer: 42%
